Results published in US20110015261A1, “USE OF A COMPOSITION COMPRISING AT LEAST ONE BETA-BLOCKER FOR THE TREATMENT OF SLEEP DISORDERS” (Zleepax Europe ApS, priority 2007, published 2011).
Where two headings read alike, the source gives them in different places.

Key:
[1] = system: patients with hypertension; conditions: cited from earlier work; for effect on the quality of sleep: patients with hypertension (Stoschitzky 2006)
[2] = system: non-hypertensive stressed individuals with transient insomnia; experiment: Sleep quality in non-hypertensive stressed individuals with transient insomnia; format: in vivo, human; conditions: 1.25 mg 2 hours before bedtime; 6 individuals (5 males, 1 female)
Method: 6 non-hypertensive stressed individuals with transient insomnia (5 males and 1 female) were treated with 1.25 mg Hypoloc (Nebivolol) 2 hours before bedtime.

[3] = system: nocturnal aMT6s secretion; conditions: healthy volunteers (Stoschitzky 2006); cited from earlier work

Row | Compound | quality of sleep ([1]; patients with hypertension (Testa 1993)) | effect on the quality of sleep [1] | sleep quality as reported by individuals [2] | effects on the nocturnal aMT6s urinary secretion [3] | quality of sleep ([1]; patients with hypertension (Erdem 2007))
1 | C[C@H](CS)C(=O)N1CCC[C@H]1C(=O)O [Captopril] | improve the quality of sleep |  |  |  | 
2 | CC(C)NCC(O)COc1ccc(COCCOC(C)C)cc1 (centres unmarked) [Bisoprolol] |  | no negative effect |  |  | 
3 | OC(CNCC(O)C1CCc2cc(F)ccc2O1)C1CCc2cc(F)ccc2O1 (centres unmarked) [Nebivolol] |  | no negative effect | significant improvement in sleep quality | little if any effects | can improve the quality of sleep
4 | COc1ccccc1OCCNCC(O)COc1cccc2[nH]c3ccccc3c12 (centres unmarked) [Carvedilol] |  | no negative effect |  | little if any effects | 
